In article PMC5578959, “Selective LRRK2 kinase inhibition reduces phosphorylation of endogenous Rab10 and Rab12 in human peripheral mononuclear blood cells” (Scientific Reports, 2017):

Columns and labels:
Assay type in all cases: binding
[1] = tested on: kinases other than LRRK2 (off-target kinases); assay: KiNativ broad kinase profiling in human PBMCs; settings: 100 nM, human PBMCs
Protocol: (§1) Compounds were shipped to ActivX Technologies (San Diego, US) where LRRK2 target engagement and broad kinase profiling was performed using KiNativ™ procedures. Live cell treatment of human peripheral blood mononuclear cells (PBMCs) at two compound concentrations (1 µM and 0.1 µM) were used to evaluate and compare in vitro target engagement and kinase selectivity, respectively (see Supplementary File 1).

HPK1 = tested on: T1, HPK1; assay: KiNativ profiling in human PBMCs
T1 construct: purchased ActivX Technologies (KiNativ)
Protocol: as §1

PIK3CG = tested on: T2, PIK3CG; assay: KiNativ profiling in human PBMCs; settings: ATP
T2 construct: purchased ActivX Technologies (KiNativ)
Protocol: as §1

STLK5 = tested on: T3, STLK5; assay: KiNativ profiling in human PBMCs
T3 construct: purchased ActivX Technologies (KiNativ)
Protocol: as §1

PKR = tested on: T4, PKR; assay: KiNativ profiling in human PBMCs
T4 construct: purchased ActivX Technologies (KiNativ)
Protocol: as §1

MAP3K6 = tested on: T5, MAP3K6; assay: KiNativ profiling in human PBMCs; settings: Lys2
T5 construct: purchased ActivX Technologies (KiNativ)
Protocol: as §1

YANK3 = tested on: T6, YANK3; assay: KiNativ profiling in human PBMCs; settings: Lys2
T6 construct: purchased ActivX Technologies (KiNativ)
Protocol: as §1

p38a = tested on: T7, p38a; assay: KiNativ profiling in human PBMCs
T7 construct: purchased ActivX Technologies (KiNativ)
Protocol: as §1

CHK2 = tested on: T8, CHK2; assay: KiNativ profiling in human PBMCs
T8 construct: purchased ActivX Technologies (KiNativ)
Protocol: as §1

NuaK2 = tested on: T9, NuaK2; assay: KiNativ profiling in human PBMCs; settings: Lys1
T9 construct: purchased ActivX Technologies (KiNativ)
Protocol: as §1

OSR1 = tested on: T10, OSR1; assay: KiNativ profiling in human PBMCs; settings: Lys2
T10 construct: purchased ActivX Technologies (KiNativ)
Protocol: as §1

Wnk1,Wnk2,Wnk3 = assay: KiNativ profiling in human PBMCs; settings: Lys2
Protocol: as §1

TBK1 = tested on: T11, TBK1; assay: KiNativ profiling in human PBMCs; settings: Lys1
T11 construct: purchased ActivX Technologies (KiNativ)
Protocol: as §1

MAP3K2 = tested on: T12, MAP3K2; assay: KiNativ profiling in human PBMCs; settings: Lys1
T12 construct: purchased ActivX Technologies (KiNativ)
Protocol: as §1

smMLCK = tested on: T13, smMLCK; assay: KiNativ profiling in human PBMCs
T13 construct: purchased ActivX Technologies (KiNativ)
Protocol: as §1

CaMK1a = tested on: T14, CaMK1a; assay: KiNativ profiling in human PBMCs; settings: Lys1
T14 construct: purchased ActivX Technologies (KiNativ)
Protocol: as §1

PIP4K2A = tested on: T15, PIP4K2A; assay: KiNativ profiling in human PBMCs; settings: ATP
T15 construct: purchased ActivX Technologies (KiNativ)
Protocol: as §1

PKCa,PKCb = assay: KiNativ profiling in human PBMCs; settings: Lys2
Protocol: as §1

NDR1 = tested on: T16, NDR1; assay: KiNativ profiling in human PBMCs
T16 construct: purchased ActivX Technologies (KiNativ)
Protocol: as §1

ILK = tested on: T17, ILK; assay: KiNativ profiling in human PBMCs
T17 construct: purchased ActivX Technologies (KiNativ)
Protocol: as §1

MAP3K4 = tested on: T18, MAP3K4; assay: KiNativ profiling in human PBMCs; settings: Lys2
T18 construct: purchased ActivX Technologies (KiNativ)
Protocol: as §1

MAP3K15,MAP3K5,MAP3K6 = assay: KiNativ profiling in human PBMCs; settings: Lys1
Protocol: as §1

FES = tested on: T19, FES; assay: KiNativ profiling in human PBMCs; settings: Lys1
T19 construct: purchased ActivX Technologies (KiNativ)
Protocol: as §1

IRE1 = tested on: T20, IRE1; assay: KiNativ profiling in human PBMCs; settings: Lys2
T20 construct: purchased ActivX Technologies (KiNativ)
Protocol: as §1

CDC2 = tested on: T21, CDC2; assay: KiNativ profiling in human PBMCs; settings: Lys2
T21 construct: purchased ActivX Technologies (KiNativ)
Protocol: as §1

IKKb = tested on: T22, IKKb; assay: KiNativ profiling in human PBMCs; settings: Lys2
T22 construct: purchased ActivX Technologies (KiNativ)
Protocol: as §1

PRP4 = tested on: T23, PRP4; assay: KiNativ profiling in human PBMCs; settings: Other
T23 construct: purchased ActivX Technologies (KiNativ)
Protocol: as §1

MAP2K6 = tested on: T24, MAP2K6; assay: KiNativ profiling in human PBMCs
T24 construct: purchased ActivX Technologies (KiNativ)
Protocol: as §1

CaMKK2 = tested on: T25, CaMKK2; assay: KiNativ profiling in human PBMCs; settings: Lys2
T25 construct: purchased ActivX Technologies (KiNativ)
Protocol: as §1

RSK2 domain2 = tested on: T26, RSK2 domain2; assay: KiNativ profiling in human PBMCs; settings: Lys2
T26 construct: RSK2 domain2; purchased ActivX Technologies (KiNativ)
Protocol: as §1

[2] = tested on: ZC1/HGK,ZC2/TNIK,ZC3/MINK; assay: KiNativ profiling in human PBMCs; settings: Lys2
Protocol: as §1

GCN2 = tested on: T27, GCN2; assay: KiNativ profiling in human PBMCs; settings: Lys2
T27 construct: purchased ActivX Technologies (KiNativ)
Protocol: as §1

PCTAIRE1,PCTAIRE3 = assay: KiNativ profiling in human PBMCs; settings: Lys2
Protocol: as §1

LATS2 = tested on: T28, LATS2; assay: KiNativ profiling in human PBMCs; settings: Lys2
T28 construct: purchased ActivX Technologies (KiNativ)
Protocol: as §1

QSK = tested on: T29, QSK; assay: KiNativ profiling in human PBMCs; settings: Lys1
T29 construct: purchased ActivX Technologies (KiNativ)
Protocol: as §1

Cc1cccc(-c2cc(Nc3ccn(C)n3)nc3[nH]cc(C#N)c23)c1 [Lu AF58786]
inhibition of other kinases [1]: no inhibition | Inhibition (HPK1; 0.1µM, Lys2): 13.0% | Inhibition (HPK1; 1µM, Lys1): 8.1% | Inhibition (HPK1; 1µM, Lys2): 21.1% | Inhibition (PIK3CG; 0.1µM): 8.8% | Inhibition (PIK3CG; 1µM): 2.1% | Inhibition (STLK5; 0.1µM, Activation Loop): 3.4% | Inhibition (STLK5; 0.1µM, Lys2): 16.0% | Inhibition (STLK5; 1µM, Activation Loop): -4.3% | Inhibition (STLK5; 1µM, Lys2): 19.2% | Inhibition (PKR; 0.1µM, Activation Loop): 6.9% | Inhibition (PKR; 0.1µM, Lys2): 5.1% | Inhibition (PKR; 1µM, Activation Loop): -2.5% | Inhibition (PKR; 1µM, Lys2): 4.5% | Inhibition (MAP3K6; 0.1µM): 31.4% | Inhibition (MAP3K6; 1µM): 4.4% | Inhibition (YANK3; 0.1µM): 11.1% | Inhibition (YANK3; 1µM): -8.5% | Inhibition (p38a; 0.1µM, Lys2): 0.7% | Inhibition (p38a; 0.1 µM, Other): -1.7% | Inhibition (p38a; 1µM, Lys2): -4.6% | Inhibition (p38a; 1 µM, Other): -7.7% | Inhibition (CHK2; 0.1µM, Lys1): 15.1% | Inhibition (CHK2; 0.1µM, Lys2): 2.3% | Inhibition (CHK2; 1µM, Lys1): 2.8% | Inhibition (CHK2; 1µM, Lys2): -16.2% | Inhibition (NuaK2; 0.1µM): 20.0% | Inhibition (NuaK2; 1µM): 38.2% | Inhibition (OSR1; 0.1µM): 19.8% | Inhibition (OSR1; 1µM): -4.1% | Inhibition (Wnk1,Wnk2,Wnk3; 0.1µM): 10.5% | Inhibition (Wnk1,Wnk2,Wnk3; 1µM): -5.4% | Inhibition (TBK1; 0.1µM): 10.1% | Inhibition (TBK1; 1µM): 26.3% | Inhibition (MAP3K2; 0.1µM): 26.8% | Inhibition (MAP3K2; 1µM): 18.5% | Inhibition (smMLCK; 0.1µM, Lys1): 1.6% | Inhibition (smMLCK; 0.1µM, Lys2): 3.0% | Inhibition (smMLCK; 1µM, Lys1): 18.7% | Inhibition (smMLCK; 1µM, Lys2): -2.1% | Inhibition (CaMK1a; 0.1µM): 11.0% | Inhibition (CaMK1a; 1µM): -3.0% | Inhibition (PIP4K2A; 0.1µM): -4.0% | Inhibition (PIP4K2A; 1µM): -14.7% | Inhibition (PKCa,PKCb; 0.1µM): -5.7% | Inhibition (PKCa,PKCb; 1µM): -0.9% | Inhibition (NDR1; 0.1µM, Lys1): 0.33% | Inhibition (NDR1; 0.1µM, Lys2): 16.5% | Inhibition (NDR1; 1µM, Lys1): -11.0% | Inhibition (NDR1; 1µM, Lys2): 0.751% | Inhibition (ILK; 0.1µM, Lys1): 2.8% | Inhibition (ILK; 0.1µM, Protein Kinase Domain): -27.2% | Inhibition (ILK; 1µM, Lys1): 5.7% | Inhibition (ILK; 1µM, Protein Kinase Domain): -1.7% | Inhibition (MAP3K4; 0.1µM): 11.1% | Inhibition (MAP3K4; 1µM): -2.7% | Inhibition (MAP3K15,MAP3K5,MAP3K6; 0.1µM): 12.0% | Inhibition (MAP3K15,MAP3K5,MAP3K6; 1µM): 11.6% | Inhibition (FES; 0.1µM): 13.9% | Inhibition (FES; 1µM): 9.3% | Inhibition (IRE1; 0.1µM): -7.8% | Inhibition (IRE1; 1µM): -11.6% | Inhibition (CDC2; 0.1 µM, DLKPQNLLIDDK): -19.4% | Inhibition (CDC2; 0.1 µM, DLKPQNLLIDDKGTIK): 5.9% | Inhibition (CDC2; 1 µM, DLKPQNLLIDDK): -27.3% | Inhibition (CDC2; 1 µM, DLKPQNLLIDDKGTIK): 6.8% | Inhibition (IKKb; 0.1µM): 11.5% | Inhibition (IKKb; 1µM): -4.3% | Inhibition (PRP4; 0.1 µM): -2.3% | Inhibition (PRP4; 1 µM): 3.0% | Inhibition (MAP2K6; 0.1µM, Lys1): 2.0% | Inhibition (MAP2K6; 0.1µM, Lys2): 5.6% | Inhibition (MAP2K6; 1µM, Lys1): 2.8% | Inhibition (MAP2K6; 1µM, Lys2): -7.5% | Inhibition (CaMKK2; 0.1µM): 13.8% | Inhibition (CaMKK2; 1µM): 1.3% | Inhibition (RSK2 domain2; 0.1µM): -3.4% | Inhibition (RSK2 domain2; 1µM): 2.8% | Inhibition ([2]; 0.1µM): 6.6% | Inhibition ([2]; 1µM): -3.7% | Inhibition (GCN2; 0.1µM): -20.3% | Inhibition (GCN2; 1µM): -15.5% | Inhibition (PCTAIRE1,PCTAIRE3; 0.1µM): 5.6% | Inhibition (PCTAIRE1,PCTAIRE3; 1µM): -11.1% | Inhibition (LATS2; 0.1µM): 9.3% | Inhibition (LATS2; 1µM): -1.5% | Inhibition (QSK; 0.1µM): 15.6% | Inhibition (QSK; 1µM): 28.4%
